This is an account of results in US10385019B2, “Inhibitors of EGFR and methods of use thereof” (Dana-Farber Cancer Institute, Inc., priority 2015, dated 2019).

The structures appear in SMILES notation. pIC50: −log10 of the molar value. Like-named read-outs stand apart in the source and are kept apart here.

The pIC50 is the negative decadic logarithm of the IC50, by convention in mol/L.

Assay in all cases: Ba/F3 cell proliferation model
What all share (assay type): cell-based, murine

The target in assay [1] is EGFR T790M/L858R Ba/F3 cell line (Homo sapiens, UniProt P00533, T790M/L858R, cells depend on it). Particulars: for Activity (% inhibition): combined with cetuximab (% cetuximab, 1.0 μM drug concentration with 1.0 μg/mL cetuximab). In a few lines:
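Murine Ba/F3 cells made IL-3-independent by retroviral EGFR L858R/T790M, selected in puromycin (2 μg/ml) and kept in RPMI 1640 with 10% FBS. Cells were exposed to serially diluted compound for 72 h, with growth read by MTS assay in six wells per point and ≥3 repeats. Sigmoidal dose-response non-linear regression gave the values.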

For assay [2], the target named is Del/T790M Ba/F3 cell line (Homo sapiens, UniProt P00533, DEL746-750/T790M, cells depend on it). From the text: (§1) The selectivity between wild-type EGFR and EGFR containing one or more mutations as described herein can also be measured using cellular proliferation assays where cell proliferation is dependent on kinase activity. For example, murine Ba/F3 cells transfected with a suitable version of wild-type EGFR (such as VIII; containing a WT EGFR kinase domain), or Ba/F3 cells transfected with L858R/T790M, Del/T790M/L718Q, L858R/T790M/L718Q, L858R/T790M/C797S, Del/T790M/C797S, L858R/T790M/I941R, or Exon 19 deletion/T790M can be used.
Sequence of Del/T790M Ba/F3 cell line (P00533 with tags, fused parts or gaps DEL746-750/T790M): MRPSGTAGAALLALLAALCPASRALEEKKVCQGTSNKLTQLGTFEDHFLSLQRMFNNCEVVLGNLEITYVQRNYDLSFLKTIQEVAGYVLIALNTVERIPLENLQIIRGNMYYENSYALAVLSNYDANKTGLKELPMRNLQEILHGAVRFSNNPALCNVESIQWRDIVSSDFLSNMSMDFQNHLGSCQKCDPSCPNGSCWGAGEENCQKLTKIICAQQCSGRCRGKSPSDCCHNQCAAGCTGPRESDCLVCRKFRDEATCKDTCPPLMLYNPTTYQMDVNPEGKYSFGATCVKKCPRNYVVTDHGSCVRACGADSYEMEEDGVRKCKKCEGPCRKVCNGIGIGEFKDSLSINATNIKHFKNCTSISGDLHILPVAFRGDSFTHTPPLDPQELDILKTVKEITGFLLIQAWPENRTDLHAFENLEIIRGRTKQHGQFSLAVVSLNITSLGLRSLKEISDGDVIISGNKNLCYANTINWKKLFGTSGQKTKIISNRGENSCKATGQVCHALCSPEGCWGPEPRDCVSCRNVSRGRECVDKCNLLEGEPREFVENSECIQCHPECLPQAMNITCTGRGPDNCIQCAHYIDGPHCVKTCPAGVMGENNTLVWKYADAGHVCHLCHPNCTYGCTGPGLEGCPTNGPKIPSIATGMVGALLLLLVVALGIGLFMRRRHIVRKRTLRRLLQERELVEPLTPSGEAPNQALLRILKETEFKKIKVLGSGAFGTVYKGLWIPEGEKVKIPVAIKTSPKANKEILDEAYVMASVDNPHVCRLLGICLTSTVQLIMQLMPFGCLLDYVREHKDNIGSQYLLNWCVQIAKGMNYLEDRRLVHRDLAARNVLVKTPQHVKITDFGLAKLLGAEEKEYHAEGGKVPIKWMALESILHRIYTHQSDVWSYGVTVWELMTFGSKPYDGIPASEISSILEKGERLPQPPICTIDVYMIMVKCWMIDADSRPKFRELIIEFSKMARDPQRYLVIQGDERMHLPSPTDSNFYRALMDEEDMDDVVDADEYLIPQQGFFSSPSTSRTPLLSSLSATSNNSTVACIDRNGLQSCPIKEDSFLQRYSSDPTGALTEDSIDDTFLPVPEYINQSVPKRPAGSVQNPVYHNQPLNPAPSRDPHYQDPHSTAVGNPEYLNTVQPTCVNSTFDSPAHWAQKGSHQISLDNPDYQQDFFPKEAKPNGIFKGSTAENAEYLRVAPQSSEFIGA
(§2) Cell lines are plated in media. The compounds of the present disclosure are then serially diluted and transferred to the cells. Cell viability is measured via a luminescent readout. Data is analyzed by non-linear regression curve-fitting.
(§3) The EGFR mutant L858R, Del E746_A750, L858R/T790M, DelE746_A750/T790M, L858R/T790M/C797S and Del/T790M/C797S Ba/F3 cells have been previously described (Zhou, W., Ercan, D., Chen, L., Yun, C. H., Li, D., Capelletti, M., Cortot, A. B., Chirieac, L., Iacob, R. E., Padera, R., et al. “Novel mutant-selective EGFR kinase inhibitors against EGFR T790M,” Nature 462, (2009), 1070-1074). All cell lines were maintained in RPMI 1640 (Cellgro; Mediatech Inc., Herndon, Calif.) supplemented with 10% FBS 100 units/mL penicillin, 100 units/mL streptomycin, and 2 mM glutamine. L858R cells were maintained in ACL-4 media (Invitrogen, Carlsbad, Calif.) supplemented with 5% FBS, 100 units/mL penicillin, 100 units/mL streptomycin, and 2 mM glutamine. The EGFR I941R mutation was introduced via site directed mutagenesis using the Quick Change Site-Directed Mutagenesis kit (Stratagene; La Jolla, Calif.) according to the manufacturer's instructions. All constructs were confirmed by DNA sequencing. The constructs were shuttled into the retroviral vector JP 1540 using the BD Creator™ System (BD Biosciences). Ba/F3 cells were infected with retrovirus and according to standard protocols, as described previously (Zhou et al, Nature 2009). Stable clones were obtained by selection in puromycin (2 μg/ml).
(§4) Growth and inhibition of growth was assessed by MTS assay and was performed according to previously established methods (Zhou et al., Nature 2009). The MTS assay is a colorimetric method for determining the number of viable cells that is based on the bioreduction of MTS by cells to a formazan product that is soluble in cell culture medium and can be detected spectrophotometrically. Ba/F3 cells of different EGFR genotypes were exposed to treatment for 72 hours and the number of cells used per experiment determined empirically and has been previously established (Zhou et al., Nature 2009). All experimental points were set up in six wells and all experiments were repeated at least three times. […] The curves were fitted using a non-linear regression model with a sigmoidal dose response.

The subject of assay [3] is EGFR Parental Ba/F3 cell line. The following applies: Mus musculus, BaF3; compound alone.
From the text: as §1, §2, §3, §4

The mark [4] stands for this setting: compound alone, read-out: L858R/T790M IC50.
[5] abbreviates: read-out: L858R/T790M Cetuximab IC50, in combination with Cetuximab.
The mark [6] stands for this setting: compound alone, read-out: Del/T790M IC50.
[7] abbreviates: read-out: Del/T790M Cetuximab IC50, in combination with Cetuximab.

Sequence of EGFR T790M/L858R Ba/F3 cell line (P00533 whole entry T790M/L858R): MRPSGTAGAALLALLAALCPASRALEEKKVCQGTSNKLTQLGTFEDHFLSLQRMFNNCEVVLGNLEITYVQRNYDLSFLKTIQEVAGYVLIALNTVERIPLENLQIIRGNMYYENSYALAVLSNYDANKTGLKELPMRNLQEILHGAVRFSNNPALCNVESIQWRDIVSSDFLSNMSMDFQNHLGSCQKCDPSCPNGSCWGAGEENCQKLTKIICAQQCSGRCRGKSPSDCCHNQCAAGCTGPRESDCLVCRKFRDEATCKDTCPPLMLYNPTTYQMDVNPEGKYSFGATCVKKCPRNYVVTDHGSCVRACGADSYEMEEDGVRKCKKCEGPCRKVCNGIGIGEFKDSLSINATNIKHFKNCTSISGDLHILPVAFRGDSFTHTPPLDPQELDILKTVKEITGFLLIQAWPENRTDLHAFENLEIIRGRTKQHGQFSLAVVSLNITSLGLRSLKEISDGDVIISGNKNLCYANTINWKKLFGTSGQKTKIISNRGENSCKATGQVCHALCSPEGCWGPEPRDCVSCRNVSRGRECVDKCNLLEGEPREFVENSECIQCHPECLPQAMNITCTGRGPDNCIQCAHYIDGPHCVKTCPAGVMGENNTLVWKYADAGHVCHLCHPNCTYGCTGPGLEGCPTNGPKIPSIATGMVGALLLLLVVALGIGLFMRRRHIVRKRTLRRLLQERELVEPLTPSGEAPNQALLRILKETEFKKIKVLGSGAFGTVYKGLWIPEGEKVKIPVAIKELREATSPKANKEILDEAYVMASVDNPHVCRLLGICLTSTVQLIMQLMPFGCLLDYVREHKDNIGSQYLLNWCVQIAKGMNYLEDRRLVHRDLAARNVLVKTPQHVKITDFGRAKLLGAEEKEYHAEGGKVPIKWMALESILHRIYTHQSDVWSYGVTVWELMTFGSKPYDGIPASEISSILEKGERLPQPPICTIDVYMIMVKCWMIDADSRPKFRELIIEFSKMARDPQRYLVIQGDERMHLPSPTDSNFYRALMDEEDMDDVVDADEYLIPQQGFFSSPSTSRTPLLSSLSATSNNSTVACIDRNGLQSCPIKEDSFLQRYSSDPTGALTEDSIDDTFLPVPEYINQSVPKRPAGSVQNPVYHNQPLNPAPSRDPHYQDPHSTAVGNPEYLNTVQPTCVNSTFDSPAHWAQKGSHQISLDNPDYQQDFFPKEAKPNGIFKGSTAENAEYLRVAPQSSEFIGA

Take `O=C(Nc1nccs1)[C@@H](c1ccccc1)N1Cc2ccc(-c3ccc(N4CCNCC4)cc3)cc2C1=O` [Compound I-68, (R)-2-(1-oxo-6-(4-(piperazin-1-yl)phenyl)isoindolin-2-yl)-2-phenyl-N-(thiazol-2-yl)acetamide]: in assay [1], the “Activity (% inhibition)” value is “D (a % inhibition of between about 0% to about 25%)”. Moreover, the GI50 in assay [1] (setting [4]) is 1 to 10 µM; in assay [1] (setting [5]), below 0.5 µM; in assay [2] (setting [6]) it was 1 to 10 µM; in assay [2] (setting [7]), 1 to 10 µM. The pIC50 in assay [3] was 5.00 to 6.00.

As to `O=C(Nc1nccs1)[C@H](c1ccccc1)N1Cc2ccc(-c3ccc4[nH]ccc4c3)cc2C1=O` [Compound I-112, (S)-2-(6-(1H-indol-5-yl)-1-oxoisoindolin-2-yl)-2-phenyl-N-(thiazol-2-yl)acetamide], the “Activity (% inhibition)” value in assay [1] is listed as “D (a % inhibition of between about 0% to about 25%)”. The GI50 in assay [1] (setting [4]) was 1 to 10 µM; in assay [1] (setting [5]), below 0.5 µM; in assay [2] (setting [6]) it was above 10 µM; in assay [2] (setting [7]) it was above 10 µM. For the same compound, in assay [3], the pIC50 is below 5.00.

As to `O=C(Nc1nccs1)[C@H](c1ccccc1)N1Cc2ccc(-c3ccccc3F)cc2C1=O` [Compound I-113, (S)-2-(6-(2-fluorophenyl)-1-oxoisoindolin-2-yl)-2-phenyl-N-(thiazol-2-yl)acetamide], in assay [1], the “Activity (% inhibition)” value is reported as “C (a % inhibition of between about 25% to about 50%)”. For the same compound, the GI50 in assay [1] (setting [4]) was above 10 µM; in assay [1] (setting [5]), below 0.5 µM; in assay [2] (setting [6]) it was above 10 µM; in assay [2] (setting [7]), above 10 µM. The pIC50 in assay [3] was below 5.00.

As to `O=C(Nc1nccs1)[C@@H](c1ccccc1)N1Cc2ccc(-c3ccccc3F)cc2C1=O` [Compound I-75, (R)-2-(6-(2-fluorophenyl)-1-oxoisoindolin-2-yl)-2-phenyl-N-(thiazol-2-yl)acetamide], the “Activity (% inhibition)” value in assay [1] was “D (a % inhibition of between about 0% to about 25%)”. Besides, the GI50 in assay [1] (setting [4]) was above 10 µM; in assay [1] (setting [5]), below 0.5 µM; in assay [2] (setting [6]), 1 to 10 µM; in assay [2] (setting [7]), 1 to 10 µM. Also, the pIC50 in assay [3] is below 5.00.

On to `O=C(Nc1nccs1)C(c1cccc(F)c1)N1Cc2ccc(-c3ccc4[nH]ccc4c3)cc2C1=O` (centres unmarked) [Compound I-122, 2-(6-(1H-indol-5-yl)-1-oxoisoindolin-2-yl)-2-(3-fluorophenyl)-N-(thiazol-2-yl)acetamide], for which the “Activity (% inhibition)” value in assay [1] is on record as “D (a % inhibition of between about 0% to about 25%)”. The GI50 was 1 to 10 µM in assay [1] (setting [4]), below 0.5 µM in assay [1] (setting [5]), above 10 µM in assay [2] (setting [6]) and above 10 µM in assay [2] (setting [7]). Also, in assay [3], the pIC50 is 5.00 to 6.00.

For `O=C(Nc1nccs1)[C@@H](c1ccccc1)N1Cc2ccc(-c3cnc4ccccc4c3)cc2C1=O` [Compound I-70, (R)-2-(1-oxo-6-(quinolin-3-yl)isoindolin-2-yl)-2-phenyl-N-(thiazol-2-yl)acetamide], in assay [1], the “Activity (% inhibition)” value is given as “D (a % inhibition of between about 0% to about 25%)”. The GI50 in assay [1] (setting [4]) is above 10 µM; in assay [1] (setting [5]), below 0.5 µM; in assay [2] (setting [6]), above 10 µM; in assay [2] (setting [7]), above 10 µM. For the same compound, in assay [3], the pIC50 was below 5.00.

Turning to `COc1cc(OC)cc(-c2ccc3c(c2)C(=O)N([C@@H](C(=O)Nc2nccs2)c2ccccc2)C3)c1` [Compound I-79, (R)-2-(6-(3,5-dimethoxyphenyl)-1-oxoisoindolin-2-yl)-2-phenyl-N-(thiazol-2-yl)acetamide], the “Activity (% inhibition)” value in assay [1] is reported as “D (a % inhibition of between about 0% to about 25%)”. Also, the GI50 in assay [1] (setting [4]) was above 10 µM; in assay [1] (setting [5]), below 0.5 µM; in assay [2] (setting [6]) it was above 10 µM; in assay [2] (setting [7]) it was above 10 µM. The pIC50 in assay [3] is below 5.00.

Consider `CC(C)(C)OC(=O)N1CCN(c2ccc(-c3ccc4c(c3)C(=O)N([C@@H](C(=O)Nc3nccs3)c3ccccc3)C4)c(F)c2)CC1` [Compound I-119, tert-butyl (R)-4-(3-fluoro-4-(3-oxo-2-(2-oxo-1-phenyl-2-(thiazol-2-ylamino)ethyl)isoindolin-5-yl)phenyl)piperazine-1-carboxylate], for which, in assay [1], the “Activity (% inhibition)” value is reported as “D (a % inhibition of between about 0% to about 25%)”. In addition, the GI50 was above 10 µM in assay [1] (setting [4]), below 0.5 µM in assay [1] (setting [5]), above 10 µM in assay [2] (setting [6]) and above 10 µM in assay [2] (setting [7]). Also, the pIC50 in assay [3] is below 5.00.

In the case of `CN(C)CCNC(=O)c1ccc(-c2ccc3c(c2)C(=O)N([C@@H](C(=O)Nc2nccs2)c2ccccc2)C3)cc1` [Compound I-81, (R)-N-(2-(dimethylamino)ethyl)-4-(3-oxo-2-(2-oxo-1-phenyl-2-(thiazol-2-ylamino)ethyl)isoindolin-5-yl)benzamide], in assay [1], the “Activity (% inhibition)” value is given as “D (a % inhibition of between about 0% to about 25%)”. Also, the GI50 in assay [1] (setting [4]) is 1 to 10 µM; in assay [1] (setting [5]) it was below 0.5 µM; in assay [2] (setting [6]) it was 1 to 10 µM; in assay [2] (setting [7]), 1 to 10 µM. In addition, in assay [3], the pIC50 was 5.00 to 6.00.

As for `O=C(Nc1nccs1)[C@@H](c1ccccc1)N1Cc2ccc(-c3ccc4c(c3)OCCO4)cc2C1=O` [Compound I-65, (R)-2-(6-(2,3-dihydrobenzo[b] [1,4]dioxin-6-yl)-1-oxoisoindolin-2-yl)-2-phenyl-N-(thiazol-2-yl)acetamide], in assay [1], the “Activity (% inhibition)” value is given as “D (a % inhibition of between about 0% to about 25%)”. Further, the GI50 was above 10 µM in assay [1] (setting [4]), below 0.5 µM in assay [1] (setting [5]), above 10 µM in assay [2] (setting [6]) and above 10 µM in assay [2] (setting [7]). Besides, the pIC50 in assay [3] was below 5.00.

In the case of `O=C(Nc1nccs1)[C@@H](c1ccccc1)N1Cc2ccc(-c3ccc(CN4CCNCC4)cc3)cc2C1=O` [Compound I-121, (R)-2-(1-oxo-6-(4-(piperazin-1-ylmethyl)phenyl)isoindolin-2-yl)-2-phenyl-N-(thiazol-2-yl)acetamide], the “Activity (% inhibition)” value in assay [1] is listed as “D (a % inhibition of between about 0% to about 25%)”. The GI50 in assay [1] (setting [4]) was 1 to 10 µM; in assay [1] (setting [5]), below 0.5 µM; in assay [2] (setting [6]), 1 to 10 µM; in assay [2] (setting [7]), 1 to 10 µM. Besides, the pIC50 in assay [3] was 5.00 to 6.00.

`CN1CCN(c2ccc(-c3ccc4c(c3)C(=O)N([C@@H](C(=O)Nc3nccs3)c3ccccc3)C4)cc2)CC1` [Compound I-69, (R)-2-(6-(4-(4-methylpiperazin-1-yl)phenyl)-1-oxoisoindolin-2-yl)-2-phenyl-N-(thiazol-2-yl) acetamide]: the “Activity (% inhibition)” value in assay [1] is on record as “D (a % inhibition of between about 0% to about 25%)”. In addition, the GI50 in assay [1] (setting [4]) is 1 to 10 µM; in assay [1] (setting [5]), below 0.5 µM; in assay [2] (setting [6]), 1 to 10 µM; in assay [2] (setting [7]), 1 to 10 µM. Further, in assay [3], the pIC50 is 5.00 to 6.00.

Turning to `O=C(Nc1ccccc1)[C@@H](c1ccccc1)N1Cc2ccccc2C1=O` [Compound I-51, (R)-2-(1-oxoisoindolin-2-yl)-N,2-diphenylacetamide], in assay [1], the “Activity (% inhibition)” value was “A (a % inhibition of about 75%)”.

For `O=C(Nc1cc(Br)ccn1)[C@@H](c1ccccc1)N1Cc2ccccc2C1=O` [Compound I-28, (R)-N-(4-bromopyridin-2-yl)-2-(1-oxoisoindolin-2-yl)-2-phenylacetamide], the “Activity (% inhibition)” value in assay [1] is reported as “A (a % inhibition of about 75%)”.
